From the METLIN SMRT retention time set (Domingo-Almenara et al. 2019)

Experiment: gradient 5% acetonitrile 3 min, to 50% in 2 min, to 85% in 15 min, held 3 min, 100 µL/min
Conditions: column: Zorbax Extend-C18 2.1 x 50 mm; eluents: water / acetonitrile, 0.1% formic acid
In short: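 Retention times of pure standards were taken from adduct peaks that were selected by computer and manually inspected. Over 3 months, mixtures of ~100 molecules were run by HPLC–quadrupole time-of-flight mass spectrometry in positive and negative ionization mode. The Zorbax Extend-C18 column (2.1 × 50 mm, 1.8 μm) ran at 100 μL/min in water and acetonitrile, each containing 0.1% formic acid, with 40 μL dead volume and 900 μL dwell volume.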

SMILES	RP-LC retention time
Cc1cc(C)c(C(=O)N2CCC(CC(=O)NCc3cccc(Br)c3)CC2)[nH]1	820 s
COc1ccc(-c2ccc(=O)n(Cc3nc(-c4cccc(Cl)c4)no3)n2)cc1	1080 s
COc1ccc(C2C(=O)N(C3CCCCC3)CC(=O)N2Cc2ccc3c(c2)OCO3)cc1 (stereo not given)	893 s
O=C1CSC(c2ccccc2Cl)c2cc(Cl)ccc2N1 (stereo not given)	987 s
CC(C)(C)c1ccc(-c2nc(NCCCN3CCOCC3)c3ccccc3n2)cc1	595 s
O=C1NCCCn2cc(S(=O)(=O)Nc3ccc(F)c(Cl)c3)cc21	686 s
Cc1ccccc1S(=O)(=O)N1CCN(c2nc3ccncc3n(CC(C)C)c2=O)CC1	775 s
CCN1c2ccc(F)cc2C(=O)NC12CCN(C(=O)c1ccc(OC)cc1C)CC2	802 s
CCc1nc2cc(-c3noc(-c4cc(F)ccc4Cl)n3)ccc2o1	1270 s
CC(C)CNC(=O)c1nc2cccnc2n(C)c1=O	701 s
CCn1c(CC2CCN(C(=O)NCC(=O)OC)C2)nc2cccnc21 (stereo not given)	534 s
CN(C)c1ccc(CNC(=O)C2CCN(c3cnc(N4CCCC4)nc3)CC2)cc1	557 s
CCOCCCNC(=O)CCc1nnc2ccc(-c3ccc(C)c(C)c3)nn12	754 s
CCn1cc(S(=O)(=O)Nc2ccc(F)c(F)c2)c2cccnc21	848 s
O=C1NCCCCCN(C(=O)c2cccs2)[C@H]2CCC[C@@H]12	698 s
Cc1cc(-c2nnc(SCC(N)=O)o2)c(C)o1	625 s
Cc1ccc(CCNC(=O)c2ncn3c2C(=O)N(C2CC2)C(C)(C(=O)NC2CCCC2)C3)cc1 (stereo not given)	795 s
COc1ccc(N2CCN(C(=O)c3cn4ccc(C)cc4n3)CC2)cc1	615 s
Cc1cccc(NC(=O)c2cn3c(n2)CCCC3)c1	609 s
CCc1cc(=O)n(CC(=O)Nc2cc(OC)ccc2OC)c(N2CCOCC2)n1	967 s
Cc1cccc(N2CC(C(=O)N3CCCCCC3)CC2=O)c1 (stereo not given)	802 s
COc1cccc(-c2ccnc3nc(-c4ccccc4)nn23)c1	919 s
Cc1ccc(NC(=O)C2CCN(S(C)(=O)=O)c3cc(Cl)ccc3O2)cc1 (stereo not given)	1010 s

SMILES	RP-LC retention time
CCN1C(=O)c2ccccc2Oc2ccc(C(=O)N3CCN(c4cc(Cl)ccc4C)CC3)cc21	1190 s
O=C(NCC(F)(F)F)c1ccc(N2CCCC2)nn1	570 s
O=C(NCC(O)(c1ccccc1)C(F)(F)F)c1cccs1 (stereo not given)	815 s
CCn1cc(S(=O)(=O)N2CCC(c3noc(COCC4CC4)n3)CC2)cn1	841 s
O=C(Cn1cnc2ccccc2c1=O)N[C@H](C(=O)O)c1ccccc1	642 s
O=C(O)c1cc(N2CCN(CC(=O)N3CCCCCC3)CC2)ccc1NC(=O)C1CCC1	636 s
Cc1ccc2[nH]cc(CCNC(=O)c3cccc(NC(=O)c4nnc(C5CC5)s4)c3)c2c1	932 s
CC1CCCN(CC2CCN(S(=O)(=O)Cc3cc(F)cc(F)c3)CC2)C1 (stereo not given)	666 s
CC(=O)Nc1ccc(C(=O)N2CC3CN(S(=O)(=O)c4cccc(F)c4)CC(C2)O3)cc1	685 s
O=c1c2cc(-c3ccc4c(c3)OCO4)nn2ccn1Cc1ccc(F)cc1	986 s
COc1ccc(NC(=O)N2CCc3[nH]cnc3C2c2ccccn2)cc1OC (stereo not given)	568 s
Cn1nccc1C(=O)N1CCC(c2noc(-c3ccncc3)n2)C1 (stereo not given)	642 s
COc1ccc2[nH]cc(CCNC(=O)C3CCCN(c4nc5ncccc5n5cccc45)C3)c2c1 (stereo not given)	623 s
CN1CCN(C(=O)c2nnc(-c3ccc(S(=O)(=O)N4CCCC4)cc3)o2)CC1	594 s
Cc1oc2ncnc(N3CCCCC3)c2c1C(=O)N(CCN(C)C)Cc1ccccc1	568 s
CCC(=O)N1CCc2cc(N3CC(C(=O)NCc4ccc(F)cc4)CC3=O)ccc21 (stereo not given)	725 s
CC1CCN(S(=O)(=O)c2ccc(-c3nnc(C(=O)NC(C)CCc4ccccc4)o3)cc2)CC1 (stereo not given)	1170 s
CC(=O)N1c2ccc(S(=O)(=O)N3CCCC3)cc2CC1C(=O)NCCN1CCCCC1 (stereo not given)	592 s
CCc1noc(NC(C)=O)c1-c1ccc(C)c(S(=O)(=O)Nc2cc(C)cc(C)c2)c1	885 s
CCc1ccc(S(=O)(=O)c2cnc(N3CCc4ccccc4C3)nc2N)cc1	1170 s
O=C(NCc1ccc(F)cc1F)c1ccc2c(c1)nc1n2CCN(Cc2ccccc2)C1=O	795 s
O=C(NCCN1CCCCCC1)C1CCCN(c2nn3c(=O)c4c(nc3s2)CCCC4)C1 (stereo not given)	608 s
CCCOc1ccc(CNC(=O)C2CCN(c3ncnc4c3oc3ccccc34)CC2)cc1	841 s

SMILES	RP-LC retention time
COc1ccc(C2CC(=O)N(c3ccc(C)cc3C)C(=O)C2)cc1OC	889 s
CSc1ccccc1C(=O)Nc1ccc(CC(=O)NCC(F)(F)F)cc1	738 s
CCOc1cc(C)c(S(=O)(=O)N2CCC(C(N)=O)CC2)cc1C	715 s
O=C(Cc1cccs1)N1CCn2c(nnc2-c2ccccc2)C1	679 s
CCOCCCNC(=O)N1CCC(c2cc(N)on2)CC1	601 s
Cc1cc(OCCCS(C)(=O)=O)cc(C)c1-c1cccc(COc2ccc3c(c2)OC[C@H]3CC(=O)O)c1	1040 s
Cn1cc2c3c(cccc31)CN(C(=O)Nc1ccccc1C(F)(F)F)CC2	978 s
CCOC(=O)c1c(C)[nH]c(C(=O)N2CCC(CC(=O)NCc3cccnc3)CC2)c1C	608 s
Cc1ccc(OCc2nc(-c3cccc(-c4ccnn4C)c3)no2)cc1	1130 s
CCCc1ccc(S(=O)(=O)N2CCC3(CC2)NCCCN=C3NC2CCCC2)cc1	857 s
COc1cccc(C(=O)NCCCn2cccc2)c1	749 s
CC1=C(c2ccc(C)c(C)c2)S(=O)(=O)N=C1N1CCC(NC(=O)C2CCCO2)CC1 (stereo not given)	788 s
N#Cc1cc2c(nc1SCC(=O)Nc1nc(-c3ccccc3)cs1)CCCC2=O	1020 s
CCN(CC)CCNC(=O)CCc1c(C)nc2c(c1C)c(=O)n(C)c(=O)n2C	602 s
O=C(c1ccncc1)N1CCCN(c2cc(-c3ccc4c(c3)OCO4)[nH]n2)CC1	605 s
COCCOC1CCC12CCN(Cc1ccccc1C#N)CC2 (stereo not given)	610 s
O=S(=O)(c1ccc2c(c1)OCCO2)N1CCCn2nc(-c3cccs3)cc2C1	908 s
Cc1nc2ccc3nc(NC(=O)COc4ccccc4F)sc3c2s1	877 s
O=C(Nc1nnc2n1CCS2)c1cc(Br)ccc1Cl	657 s
COc1ccc(Nc2c(C(=O)N3CCCCC3)cnc3nc(C)ccc23)cc1OC	588 s
COc1ccc(CNC2=NCCNC23CCN(S(=O)(=O)c2ccc(C)c(C)c2)CC3)cc1	775 s
NC(=O)C1CCN(C(=O)c2c[nH]c3c(C(F)(F)F)cccc3c2=O)CC1	572 s
CCOc1ccccc1NC(=O)N1CCN(c2ccc(=O)n(-c3ccccc3)n2)CC1	851 s

SMILES	RP-LC retention time
Cc1ccc2c(=O)c3c([nH]c2c1C)CCN(CC(=O)Nc1ccc(F)c(F)c1)C3	646 s
CC1CCC(C(=O)Nc2cccc(-c3nnc4n3CCCC4)c2)CC1 (stereo not given)	756 s
Cc1csc(NC(=O)C2CCCN(c3ncnc4c3nc3n4CCCCC3)C2)n1 (stereo not given)	756 s
O=C1c2cc(NC(=O)C3(c4cccs4)CCCC3)ccc2OCCC2CCCCN12 (stereo not given)	974 s
COc1ccc(-c2noc(-c3nnn4c3COC(c3ccc(Cl)cc3)C4)n2)cc1F (stereo not given)	1230 s
O=C(COc1ccc(Cl)cc1)Nc1c(-c2ccc(F)cc2)nc2ccccn12	744 s
CCN1CCN(c2ccc(NC(=O)c3cccc(C)c3)cn2)C1=O	742 s
COc1ccccc1OCCC1CCN(S(=O)(=O)c2ccc3c(c2)C(C)(C)C(=O)N3)C1 (stereo not given)	902 s
CSc1ccc(-c2nc3cnccn3c2Nc2cccc(C(=O)N3CCOCC3)c2)cc1	704 s
Cc1cccc(Nc2ccc(N3CCN(C(=O)c4ccc(Br)o4)CC3)nn2)n1	578 s
O=C(CC1CCN(C(=O)Nc2ccc(Br)cc2)CC1)N1CCCCC1	830 s
CCC1CN2C=NC(N3CCN(C(=O)c4nn(CC)cc4Cl)CC3)=CC2=N1 (stereo not given)	602 s
Cc1cccc(-c2ncccc2CNS(=O)(=O)Cc2ccccc2F)c1	705 s
O=C(Nc1ccc(F)cc1F)C1(CCO)CCN(c2ncccn2)C1 (stereo not given)	611 s
Cc1cccc(NC(=O)N2c3ccccc3NC3=C(C(=O)CCC3)C2c2ccco2)c1C (stereo not given)	813 s
COC(=O)CNC(=O)N1CCCC1c1cccc(C)c1 (stereo not given)	734 s
CC(=O)Nc1ccc(OCc2cc(C(=O)NC3CCC(C)CC3)no2)cc1 (stereo not given)	860 s
CCCCn1cc(S(=O)(=O)Nc2ccccc2)c2cccnc21	937 s
O=C(NCCc1csc(C2CCCN(C(=O)C3CC3)C2)n1)C1CC1 (stereo not given)	662 s
COc1ccc(C(=O)N2CCc3nc(CNC(=O)C4CCC4)n(C)c3C2)cc1	516 s
COCc1cc(=O)n(CC(=O)Nc2cc(C)ccc2C)c(N)n1	631 s
